Results as given in ChEMBL document CHEMBL2073815, “Induction of hepatic phase II drug-metabolizing enzymes by 1,7-phenanthroline in rats is accompanied by induction of MRP3” (Drug Metab Dispos, 2003).

Tests used:
Format in all cases: functional, organism-based
[1] = biological target: T1, ATP-binding cassette sub-family C member 3 (Rattus norvegicus, UniProt O88563); assay: (§1) TP_TRANSPORTER: quantitative PCR in vivo, liver of male Sprague-Dawley rat
[2] = biological target: T2, Solute carrier organic anion transporter family member 1A4 (Rattus norvegicus, UniProt O35913); assay: as §1
T2 sequence (O35913 whole entry): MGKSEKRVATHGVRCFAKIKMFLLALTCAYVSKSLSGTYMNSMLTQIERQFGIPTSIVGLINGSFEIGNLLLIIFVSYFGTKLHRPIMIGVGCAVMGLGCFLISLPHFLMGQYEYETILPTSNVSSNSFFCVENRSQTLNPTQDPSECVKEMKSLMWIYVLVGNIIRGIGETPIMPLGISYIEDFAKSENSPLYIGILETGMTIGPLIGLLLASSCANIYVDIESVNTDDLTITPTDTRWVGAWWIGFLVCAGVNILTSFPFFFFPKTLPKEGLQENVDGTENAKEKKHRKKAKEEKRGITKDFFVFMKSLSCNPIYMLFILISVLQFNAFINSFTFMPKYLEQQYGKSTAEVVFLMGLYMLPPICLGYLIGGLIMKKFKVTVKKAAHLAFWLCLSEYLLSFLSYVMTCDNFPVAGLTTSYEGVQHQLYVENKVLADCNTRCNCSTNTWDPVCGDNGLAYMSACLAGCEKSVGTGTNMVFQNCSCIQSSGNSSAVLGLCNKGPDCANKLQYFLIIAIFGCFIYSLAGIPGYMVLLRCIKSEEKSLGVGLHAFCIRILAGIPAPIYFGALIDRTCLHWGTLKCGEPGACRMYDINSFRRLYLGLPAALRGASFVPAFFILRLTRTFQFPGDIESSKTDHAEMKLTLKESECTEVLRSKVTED

[3] = biological target: T1, ATP-binding cassette sub-family C member 3; assay: TP_TRANSPORTER: quantitative PCR in vivo, […] of male Sprague-Dawley rat

Measured: Activity

T1 sequence (O88563 whole entry): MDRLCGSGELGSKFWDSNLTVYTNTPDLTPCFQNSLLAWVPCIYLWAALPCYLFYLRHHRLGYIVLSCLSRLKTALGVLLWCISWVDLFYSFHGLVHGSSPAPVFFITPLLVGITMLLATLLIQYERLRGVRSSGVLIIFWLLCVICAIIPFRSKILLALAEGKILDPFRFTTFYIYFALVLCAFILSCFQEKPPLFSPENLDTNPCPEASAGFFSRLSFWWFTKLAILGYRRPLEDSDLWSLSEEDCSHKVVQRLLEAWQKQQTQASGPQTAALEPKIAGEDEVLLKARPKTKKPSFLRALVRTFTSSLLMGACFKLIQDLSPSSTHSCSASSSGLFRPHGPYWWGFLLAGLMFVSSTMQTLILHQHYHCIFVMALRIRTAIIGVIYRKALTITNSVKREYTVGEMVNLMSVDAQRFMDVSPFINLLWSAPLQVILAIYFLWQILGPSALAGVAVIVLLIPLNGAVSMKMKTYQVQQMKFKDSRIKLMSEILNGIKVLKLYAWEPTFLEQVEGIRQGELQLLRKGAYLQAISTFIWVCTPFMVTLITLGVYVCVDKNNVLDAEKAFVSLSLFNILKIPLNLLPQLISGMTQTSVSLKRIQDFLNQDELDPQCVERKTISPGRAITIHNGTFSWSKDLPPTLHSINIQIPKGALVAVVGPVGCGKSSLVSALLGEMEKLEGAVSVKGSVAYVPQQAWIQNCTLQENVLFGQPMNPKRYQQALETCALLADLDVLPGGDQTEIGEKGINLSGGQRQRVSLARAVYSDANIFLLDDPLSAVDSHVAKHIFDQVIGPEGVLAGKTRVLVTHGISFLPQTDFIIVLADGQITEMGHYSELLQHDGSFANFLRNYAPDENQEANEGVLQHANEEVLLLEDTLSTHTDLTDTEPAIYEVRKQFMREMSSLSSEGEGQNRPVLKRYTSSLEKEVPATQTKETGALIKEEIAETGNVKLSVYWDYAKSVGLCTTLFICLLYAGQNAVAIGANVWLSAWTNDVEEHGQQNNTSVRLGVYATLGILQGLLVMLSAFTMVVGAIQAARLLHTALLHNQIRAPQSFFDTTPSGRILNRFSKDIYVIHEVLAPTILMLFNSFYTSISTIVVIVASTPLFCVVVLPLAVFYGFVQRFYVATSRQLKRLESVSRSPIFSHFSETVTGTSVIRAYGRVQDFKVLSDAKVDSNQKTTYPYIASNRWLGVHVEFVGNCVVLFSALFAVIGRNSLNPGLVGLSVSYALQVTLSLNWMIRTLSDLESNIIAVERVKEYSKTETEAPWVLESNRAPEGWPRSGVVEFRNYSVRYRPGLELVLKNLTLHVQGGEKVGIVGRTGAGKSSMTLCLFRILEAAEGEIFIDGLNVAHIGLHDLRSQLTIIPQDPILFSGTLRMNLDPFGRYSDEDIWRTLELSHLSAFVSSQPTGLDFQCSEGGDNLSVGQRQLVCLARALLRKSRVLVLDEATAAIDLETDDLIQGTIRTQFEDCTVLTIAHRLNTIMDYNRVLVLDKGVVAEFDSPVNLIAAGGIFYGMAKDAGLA

c1cnc2c(c1)ccc1ncccc12
inducer []: [1] | [2] | [3]
